The source made the active and inactive calls. No cut-off for these calls is given here.
Assays:
HL-60 [1] = assay: Induction of cell cycle arrest in human HL60 cells assessed as accumulation at G0/G1 phase at 5 uM after 48 hrs by propidium iodide staining based flow cytometry (reference value: 42.9%); assay type: functional
[2] = Growth inhibition of human HCT116 cells at 10 uM after 72 hrs by MTS assay; assay type: functional; settings: HCT-116, 72 h, read-out: GI
HL-60 [3] = assay: Induction of cell cycle arrest in human HL60 cells assessed as accumulation at G2/M phase at 10 uM after 48 hrs by propidium iodide staining based flow cytometry (reference value: 11.6%); assay type: functional
MCF7 = assay: Growth inhibition of human MCF7 cells at 10 uM after 72 hrs by MTS assay; assay type: functional; settings: MCF7, 72 h, read-out: GI
HL-60 [4] = assay: Induction of cell cycle arrest in human HL60 cells assessed as accumulation at G0/G1 phase at 10 uM after 48 hrs by propidium iodide staining based flow cytometry (reference value: 42.9%); assay type: functional
HL-60 [5] = assay: Induction of cell cycle arrest in human HL60 cells assessed as accumulation at G2/M phase at 2 uM after 48 hrs by propidium iodide staining based flow cytometry (reference value: 11.6%); assay type: functional
[6] = Growth inhibition of drug resistant human HL60 cells at 10 uM after 72 hrs by MTS assay; assay type: functional; settings: HL-60, 72 h, read-out: GI
HL-60 [7] = assay: Induction of cell cycle arrest in human HL60 cells assessed as accumulation at S phase at 10 uM after 48 hrs by propidium iodide staining based flow cytometry (reference value: 45%); assay type: functional
HL-60 [8] = assay: Induction of apoptosis in human HL60 cells assessed as early apoptotic cells level at 10 uM annexin V-PE and 7-AAD staining based by flow cytometry (reference value: 18.5%); assay type: functional
HL-60 [9] = assay: Induction of necrosis in intact human HL60 cells assessed as cytosolic LDH release at 2 to 10 uM; assay type: functional, cell-based
HL-60 [10] = assay: Induction of apoptosis in human HL60 cells assessed as intact cells level at 2 uM annexin V-PE and 7-AAD staining based by flow cytometry (reference value: 80.7%); assay type: functional
SK-OV-3 = assay: Growth inhibition of human SKOV3 cells at 10 uM after 72 hrs by MTS assay; assay type: functional; settings: SK-OV-3, 72 h, read-out: GI
HL-60 [11] = assay: Induction of apoptosis in human HL60 cells assessed as dead cells level at 5 uM annexin V-PE and 7-AAD staining based by flow cytometry (reference value: 0.4%); assay type: functional
[12] = Growth inhibition of human MCF7/R cells at 10 uM after 72 hrs by MTS assay; assay type: functional; settings: MCF7R, read-out: GI
HL-60 [13] = assay: Induction of cell cycle arrest in human HL60 cells assessed as accumulation at subG1 phase at 2 uM after 48 hrs by propidium iodide staining based flow cytometry (reference value: 0.5%); assay type: functional
HL-60 [14] = assay: Induction of apoptosis in human HL60 cells assessed as intact cells level at 10 uM annexin V-PE and 7-AAD staining based by flow cytometry (reference value: 80.7%); assay type: functional
HL-60 [15] = assay: Induction of apoptosis in human HL60 cells assessed as late apoptosis cells level at 10 uM annexin V-PE and 7-AAD staining based by flow cytometry (reference value: 0.4%); assay type: functional
HL-60 [16] = assay: Induction of cell cycle arrest in human HL60 cells assessed as accumulation at G0/G1 phase at 2 uM after 48 hrs by propidium iodide staining based flow cytometry (reference value: 42.9%); assay type: functional
HL-60 [17] = assay: Induction of cell cycle arrest in human HL60 cells assessed as accumulation at G2/M phase at 5 uM after 48 hrs by propidium iodide staining based flow cytometry (reference value: 11.6%); assay type: functional
HL-60 [18] = assay: Induction of apoptosis in human HL60 cells assessed as early apoptotic cells level at 2 uM annexin V-PE and 7-AAD staining based by flow cytometry (reference value: 18.5%); assay type: functional
HL-60 [19] = assay: Induction of cell cycle arrest in human HL60 cells assessed as accumulation at subG1 phase at 5 uM after 48 hrs by propidium iodide staining based flow cytometry (reference value: 0.5%); assay type: functional
HL-60 [20] = assay: Induction of cell cycle arrest in human HL60 cells assessed as accumulation at S phase at 2 uM after 48 hrs by propidium iodide staining based flow cytometry (reference value: 45%); assay type: functional
HL-60 [21] = assay: Induction of cell cycle arrest in human HL60 cells assessed as accumulation at S phase at 5 uM after 48 hrs by propidium iodide staining based flow cytometry (reference value: 45%); assay type: functional
HL-60 [22] = assay: Induction of apoptosis in human HL60 cells assessed as late apoptosis cells level at 5 uM annexin V-PE and 7-AAD staining based by flow cytometry (reference value: 0.4%); assay type: functional
HL-60 [23] = assay: Induction of apoptosis in human HL60 cells assessed as early apoptotic cells level at 5 uM annexin V-PE and 7-AAD staining based by flow cytometry (reference value: 18.5%); assay type: functional
[24] = Growth inhibition of human PC3 cells at 10 uM after 72 hrs by MTS assay; assay type: functional; settings: PC-3, 72 h, read-out: GI
HL-60 [25] = assay: Induction of apoptosis in human HL60 cells assessed as caspase-3 activation at 5 uM after 24 to 48 hrs by DEVD-AMC substrate based fluorescence assay; assay type: functional, cell-based
HL-60 [26] = assay: Induction of apoptosis in human HL60 cells assessed as dead cells level at 2 uM annexin V-PE and 7-AAD staining based by flow cytometry (reference value: 0.4%); assay type: functional
HL-60 [27] = assay: Induction of necrosis in human HL60 cells assessed as total LDH activity at 2 to 10 uM; assay type: functional, cell-based
HL-60 [28] = assay: Induction of apoptosis in human HL60 cells assessed as late apoptosis cells level at 2 uM annexin V-PE and 7-AAD staining based by flow cytometry (reference value: 0.4%); assay type: functional
[29] = Growth inhibition of human HL60 cells at 10 uM after 72 hrs by MTS assay; assay type: functional; settings: HL-60, 72 h, read-out: GI
HL-60 [30] = assay: Induction of cell cycle arrest in human HL60 cells assessed as accumulation at subG1 phase at 10 uM after 48 hrs by propidium iodide staining based flow cytometry (reference value: 0.5%); assay type: functional
HL-60 [31] = assay: Induction of apoptosis in human HL60 cells assessed as dead cells level at 10 uM annexin V-PE and 7-AAD staining based by flow cytometry (reference value: 0.4%); assay type: functional
HL-60 [32] = assay: Induction of apoptosis in human HL60 cells assessed as intact cells level at 5 uM annexin V-PE and 7-AAD staining based by flow cytometry (reference value: 80.7%); assay type: functional
KB = assay: Growth inhibition of human KB cells at 10 uM after 72 hrs by MTS assay; assay type: functional; settings: read-out: GI

COC(=O)C1(Cc2ccc(OC)cc2)CC(=O)OC1(C)c1ccccc1 (stereo not given)
Activity (HL-60 [1]): 23.4%
inhibition of growth at 10 µM [2]: 61%
Activity (HL-60 [3]): 13.1%
inhibition of growth at 10 µM (MCF7): 56%
Activity (HL-60 [4]): 19.5%
Activity (HL-60 [5]): 25.6%
inhibition of growth at 10 µM [6]: 92%
Activity (HL-60 [7]): 29.7%
Activity (HL-60 [8]): 53.35%
Activity (HL-60 [9]): inactive
Activity (HL-60 [10]): 61.45%
inhibition of growth at 10 µM (SK-OV-3): 76%
Activity (HL-60 [11]): 0.9%
inhibition of growth at 10 µM [12]: 82%
Activity (HL-60 [13]): 14.1%
Activity (HL-60 [14]): 40.7%
Activity (HL-60 [15]): 4.25%
Activity (HL-60 [16]): 36.3%
Activity (HL-60 [17]): 12.2%
Activity (HL-60 [18]): 37.65%
Activity (HL-60 [19]): 38.9%
Activity (HL-60 [20]): 24%
Activity (HL-60 [21]): 25.6%
Activity (HL-60 [22]): 2.2%
Activity (HL-60 [23]): 46.4%
inhibition of growth at 10 µM [24]: 68%
Activity (HL-60 [25]): Active
Activity (HL-60 [26]): 0.35%
Activity (HL-60 [27]): Active
Activity (HL-60 [28]): 0.65%
inhibition of growth at 10 µM [29]: 82%
Activity (HL-60 [30]): 37.7%
Activity (HL-60 [31]): 1.65%
Activity (HL-60 [32]): 50.55%
inhibition of growth at 10 µM (KB): 95%

From ChEMBL document CHEMBL3352326, “Synthesis of 2,3-di- and 2,2,3-trisubstituted-3-methoxycarbonyl-γ-butyrolactones as potent antitumor agents” (Eur J Med Chem, 2015)
